This passage reports IC50 results from patent US11603355B2, “Charged ion channel blockers and methods for use” (Nocion Therapeutics, Inc., priority 2019, dated 2023).

Some results are limits rather than exact numbers.

In assay [1] the target is T1, NaV1.7 (Homo sapiens, UniProt Q15858).
T1 construct: expressed in transfected cells; host or cells: HEK293 (tetracycline-inducible)
Nature of the assay: Automated patch clamp (Qube 384), internal block of NaV1.7. The format is cell-based. As to conditions: IC50, compound in internal solution, HEK293 cells, read-out: Nav1.7 Intracellular Inhibition. Summed up: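 Tetracycline-induced HEK293 cells, whole-cell Qube recording at 22 degrees; compounds dissolved in internal solution (CsF-based, pH 7.3), exchanged after baseline. Held at −100 mV, 10 ms pulses to −20 mV at 5 Hz for 10 min; remaining current (last 3 points) vs baseline, rundown-corrected with no-drug cells; Hill-fit IC50.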
On the technique in general: The patch-clamp technique gives a direct electrical read-out from membranes.

Assay [2] addresses T1, NaV1.7. The assay is described as follows: Automated patch clamp (Qube 384), external block of NaV1.7. The format is cell-based. Particulars: IC50, compound in external solution, HEK293 cells, read-out: Nav1.7 Extracellular Inhibition. The procedure, abridged: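 Tetracycline-induced HEK293 cells, whole-cell patch at 22 degrees, held at −100 mV; 10 ms pulses to −20 mV at 5 Hz with leak subtraction. Compound applied in external solution (pH 7.4), then 10 min recording. Control-corrected, Hill-fitted IC50.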

T1 sequence (Q15858 whole entry): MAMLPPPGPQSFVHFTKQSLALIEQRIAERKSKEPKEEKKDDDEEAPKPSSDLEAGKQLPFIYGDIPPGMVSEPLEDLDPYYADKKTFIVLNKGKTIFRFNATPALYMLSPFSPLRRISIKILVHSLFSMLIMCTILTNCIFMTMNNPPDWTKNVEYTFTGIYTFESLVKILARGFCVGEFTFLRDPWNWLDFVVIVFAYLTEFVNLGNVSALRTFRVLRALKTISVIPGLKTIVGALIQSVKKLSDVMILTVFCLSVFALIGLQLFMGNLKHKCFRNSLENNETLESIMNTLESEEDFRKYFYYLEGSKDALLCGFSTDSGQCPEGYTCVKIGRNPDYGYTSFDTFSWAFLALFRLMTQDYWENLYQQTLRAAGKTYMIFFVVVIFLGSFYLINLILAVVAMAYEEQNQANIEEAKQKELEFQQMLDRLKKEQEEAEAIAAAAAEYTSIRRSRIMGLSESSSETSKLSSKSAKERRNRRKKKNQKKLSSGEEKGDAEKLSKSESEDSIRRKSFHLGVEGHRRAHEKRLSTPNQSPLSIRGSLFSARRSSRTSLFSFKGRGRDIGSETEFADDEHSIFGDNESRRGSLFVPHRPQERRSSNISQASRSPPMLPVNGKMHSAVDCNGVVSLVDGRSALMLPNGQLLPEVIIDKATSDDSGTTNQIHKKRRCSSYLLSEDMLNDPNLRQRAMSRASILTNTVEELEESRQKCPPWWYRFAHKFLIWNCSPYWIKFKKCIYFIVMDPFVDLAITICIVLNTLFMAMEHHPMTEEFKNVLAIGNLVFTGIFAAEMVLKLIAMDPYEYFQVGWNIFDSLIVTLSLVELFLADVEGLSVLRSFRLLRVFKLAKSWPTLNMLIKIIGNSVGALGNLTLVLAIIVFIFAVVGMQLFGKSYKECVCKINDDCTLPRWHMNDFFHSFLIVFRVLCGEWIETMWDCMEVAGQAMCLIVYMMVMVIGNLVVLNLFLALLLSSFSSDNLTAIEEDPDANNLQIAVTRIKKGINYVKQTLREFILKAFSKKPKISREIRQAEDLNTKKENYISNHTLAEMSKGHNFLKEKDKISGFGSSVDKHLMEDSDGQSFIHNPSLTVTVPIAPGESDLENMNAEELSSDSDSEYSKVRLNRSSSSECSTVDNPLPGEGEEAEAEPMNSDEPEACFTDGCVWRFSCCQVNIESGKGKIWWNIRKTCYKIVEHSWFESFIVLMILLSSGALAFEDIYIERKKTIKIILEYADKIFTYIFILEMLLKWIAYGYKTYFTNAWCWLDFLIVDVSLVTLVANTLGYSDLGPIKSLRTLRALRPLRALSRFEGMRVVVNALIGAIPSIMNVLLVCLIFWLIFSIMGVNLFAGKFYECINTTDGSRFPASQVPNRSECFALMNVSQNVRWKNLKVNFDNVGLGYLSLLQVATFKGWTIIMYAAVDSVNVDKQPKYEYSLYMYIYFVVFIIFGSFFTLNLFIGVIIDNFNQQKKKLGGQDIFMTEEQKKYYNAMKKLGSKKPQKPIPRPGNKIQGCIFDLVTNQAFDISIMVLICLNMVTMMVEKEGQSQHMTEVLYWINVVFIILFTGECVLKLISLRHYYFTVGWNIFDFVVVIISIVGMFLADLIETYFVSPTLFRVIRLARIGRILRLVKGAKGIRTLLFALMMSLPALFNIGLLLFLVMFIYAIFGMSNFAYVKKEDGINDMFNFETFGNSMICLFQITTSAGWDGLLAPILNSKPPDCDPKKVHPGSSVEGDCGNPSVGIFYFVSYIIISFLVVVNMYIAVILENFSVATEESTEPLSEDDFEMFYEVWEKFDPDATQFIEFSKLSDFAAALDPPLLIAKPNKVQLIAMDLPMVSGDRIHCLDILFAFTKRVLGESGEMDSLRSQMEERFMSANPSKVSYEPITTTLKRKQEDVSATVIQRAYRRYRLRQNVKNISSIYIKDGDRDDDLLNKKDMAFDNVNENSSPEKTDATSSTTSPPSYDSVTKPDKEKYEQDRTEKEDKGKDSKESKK

With `CCOc1cccc(C)c1NC(=O)C[N+]1(Cc2ccccc2)CCCCCC1.[Br-]` [Compound 77A], the IC50 on NaV1.7 [1] is 300 to 1000 nM; on NaV1.7 [2], 1000 to 3000 nM.

Consider `CCC(=O)Oc1cccc(C)c1NC(=O)C[N+]1(Cc2ccccc2)CCCCCC1.[Br-]` [Compound 80A, 1-benzyl-1-(2-((2-methyl-6-(propionyloxy)phenyl)amino)-2-oxoethyl) azepan-1-ium bromide], for which the IC50 at NaV1.7 [1] was 300 to 1000 nM; on NaV1.7 [2], greater than 10000 nM.

Consider `Cc1cccc(C)c1C(=O)OCC[N+]1(Cc2ccccc2)CCCCCC1.[Br-]` [Compound 82A, 1-benzyl-1-(2-((2,6-dimethylbenzoyl)oxy)ethyl) azepan-1-ium bromide], for which the IC50 at NaV1.7 [1] was in the range of 300 to 1000 nM; at NaV1.7 [2], 3000 to 10000 nM.

`CC[N+](CC)(CCCc1ccccc1)CC(=O)Nc1c(C)cccc1C.[Br-]` [Compound 86A, N-(2-((2,6-dimethylphenyl)amino)-2-oxoethyl)-N, N-diethyl-3-phenylpropan-1-aminium bromide]: the IC50 is 1000 to 3000 nM at NaV1.7 [1] and greater than 10000 nM on NaV1.7 [2].

Turning to `Cc1cccc(C)c1N1CCC([N+]2(Cc3ccccc3)CCCCC2)C1=O.[Br-]` (centres unmarked) [Compound 89A, 1-benzyl-1-(1-(2,6-dimethylphenyl)-2-oxopyrrolidin-3-yl)piperidin-1-ium bromide], the results for the IC50 at NaV1.7 [1] and at NaV1.7 [2] were 1000 to 3000 nM and greater than 10000 nM, respectively.

Regarding `Cc1cccc(C)c1N1CCC([N+]2(Cc3ccccc3)CCCCCCC2)C1=O.[Br-]` (centres unmarked) [Compound 90A], the IC50 was 300 to 1000 nM on NaV1.7 [1] and 3000 to 10000 nM on NaV1.7 [2].

On to `Cc1cccc(C)c1N1CCCC([N+]2(Cc3ccccc3)CCCC2)C1=O.[Br-]` (centres unmarked) [Compound 91A, 1-benzyl-1-(1-(2,6-dimethylphenyl)-2-oxopiperidin-3-yl) pyrrolidin-1-ium bromide], for which the IC50 is 1000 to 3000 nM at NaV1.7 [1] and greater than 10000 nM at NaV1.7 [2].
